Measurements published in article PMC8474115 (Journal of Medicinal Chemistry, 2021).
Counter-ions that a name gives are not always drawn. Like-named read-outs stand apart in the source and are kept apart here.

Experiments:
5-HT3R = target: T1, 5-HT3R (Cavia porcellus, UniProt O70212); conditions: for functional classification at 5-HT3R: guinea pig ileum contraction; for antagonist effect: percent inhibition of response to 5-HT 3 μM (contraction of guinea pig ileum)
T1 sequence (O70212 20-490): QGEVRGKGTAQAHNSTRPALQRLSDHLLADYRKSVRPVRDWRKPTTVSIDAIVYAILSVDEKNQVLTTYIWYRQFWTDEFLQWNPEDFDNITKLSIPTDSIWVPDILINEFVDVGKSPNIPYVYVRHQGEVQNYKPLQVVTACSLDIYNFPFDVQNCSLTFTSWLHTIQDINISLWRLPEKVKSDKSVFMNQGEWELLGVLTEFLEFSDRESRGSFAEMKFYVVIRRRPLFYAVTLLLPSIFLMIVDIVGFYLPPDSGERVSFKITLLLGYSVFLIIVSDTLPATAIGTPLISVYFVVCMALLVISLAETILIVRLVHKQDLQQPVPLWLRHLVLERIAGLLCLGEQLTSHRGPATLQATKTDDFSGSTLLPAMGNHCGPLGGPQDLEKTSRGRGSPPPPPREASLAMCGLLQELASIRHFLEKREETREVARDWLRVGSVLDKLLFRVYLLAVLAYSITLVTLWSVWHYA
Protocol: Isolated guinea pig ileum was employed to test the affinity and the intrinsic activity of the investigated compounds for 5-HT3 receptors. […] A 15 cm ileum segment was excised from the small intestine of male guinea pigs and immersed into a Krebs solution (NaCl 120 mM, KCl 5.6 mM, MgCl2 2.2 mM, CaCl2 2.4 mM, NaHCO3 19 mM, glucose 10 mM). After the first 5 cm length closest to the ileocaecal junction had been discarded 2 cm-long fragments were cut. Each segment of the ileum was placed in a 20 mL chamber of tissue organ bath system (Tissue Organ Bath System – 750 TOBS, DMT, Denmark) filled with the Krebs solution at 37° C, pH 7.4, with constant oxygenation (O2/CO2, 19:1), fixed by the lower end to a rod and by the upper end to the force–displacement transducer. The preparation was allowed to stabilize in organ baths for 60 min under a resting tension of 0.5 g, washing every 15 min with fresh Krebs solution. After the equilibration period, a cumulative concentration–response curve was constructed in each tissue for 5-HT (10 nM – 10 μM) by the method of van Rossum.[64] […] Selected compounds were tested using an additional method. After establishment of the first 5-HT concentration–response curve, washing out of the tissue, and stabilization period, the same tissues were subsequently incubated with one of the concentrations of the tested compound for 15 min and the next cumulative concentration curve to 5-HT was obtained. Only one concentration of a studied compound was tested in each piece of tissue.

h5-HT6R [1] = target: T2, h5-HT6R (Homo sapiens, UniProt P50406)
Protocol: (§1) For membrane preparation, cells after reaching 90% confluence, were washed with phosphate-buffered saline (PBS), and pelleted by centrifugation (200 × g) in PBS containing 0.1 mM EDTA and 1 mM dithiothreitol.
(§2) The total reaction volume was 200 μL. The incubation process was terminated by filtration through UniFilter-96 (PerkinElmer) plates with the FilterMate Universal Harvester (PerkinElmer, #C961962), and radioactivity retained on the filters was quantified on a MicroBeta counter for radiometric detection (PerkinElmer). […] To evaluate the level of nonspecific signal 10 μM of 5-HT for 5-HT1AR and 5-HT7R, 20 μM of mianserin for 5-HT2AR, 10 μM of methiothepine for 5-HT6R and 10 μM of haloperidol for D2LR were used. […] The acquired results were presented as the mean of at least two independent experiments.

h5-HT6R [2] = target: T2, h5-HT6R; assay: Inhibition of 5-CT-induced cAMP production in 1321N1 cells expressing h5-HT6R; assay type: cell-based; parameters: host or cells: 1321N1; conditions: for Kb: cAMP; for antagonist effect: 10^–6 M, percent inhibition of control agonist response
h5-HT1A = h5-HT1A (Homo sapiens, UniProt P08908); conditions: 5-HT1AR
Protocol: as §1, §2

h5-HT2AR = h5-HT2AR (Homo sapiens, UniProt P28223); conditions: 5-HT2AR
Protocol: as §1, §2

h5-HT7b = h5-HT7b (Homo sapiens, UniProt P34969); conditions: 5-HT7R
Protocol: as §1, §2

hD2L = hD2L (Homo sapiens, UniProt P14416); conditions: D2R
Protocol: as §1, §2

male Sprague–Dawley rats [3] = system: male Sprague–Dawley rats
Protocol: (§3) Both spontaneous and PCP-induced locomotor activity were measured automatically in Opto-Varimex-4 Auto-Tracks (Columbus Instruments, Ohio) located in sound-attenuated and ventilated boxes. The Auto-Track System sensed the motion with a grid of infrared photocells (16 beams per axis) surrounding the arena.
(§4) Following 30 min of spontaneous activity measurement, the animals were removed from the boxes, injected with phencyclidine hydrochloride (PCP) at a dose of 5 mg/kg (SC), and then PCP-induced locomotor activity was measured for 120 min.
(§5) The measurements (30 min) preceding PCP administration indicate drug-induced effects on spontaneous locomotor activity. The second period (measured in the same animals at 0-120 min following PCP administration) indicates drug-induced alteration of PCP-induced hyperactivity.
(§6) Mixed-design two-way ANOVA with treatment(s) as between-subject factor and time as repeated measures factor on raw distance data, and separate one-way or two-way ANOVAs (on AUC data) followed by Dunnett’s multiple comparison, LSD or Tukey’s post hoc tests as well as analyses of contrast coefficients (Statistica 12 for Windows, IBM SPSS ver 26 for Mac) were used to assess the effects of compounds on activity.

male Sprague–Dawley rats [4] = conditions: AUC −25 to 0 min before PCP
Protocol: as §3, §4, §5, §6

h5-HT3R = h5-HT3R (Homo sapiens, UniProt P46098); conditions: inhibition of inward currents in response to 5-HT (EC80)
Protocol: All recordings were obtained from a holding potential of -60 mV. To establish the baseline response, serotonin was added at the concentration corresponding to its EC80 value. Subsequently, the test compound was characterized in a dose–response protocol at the concentration ranges from 10^–6 to 10^–11 M, with 30 s preincubation, followed by the addition of 5-HT at its EC80 in the presence of the compound for 2 s.
Peak inward currents were measured in response to the serotonin additions in the presence of a single concentration of the compound. Obtained data have been normalized to the baseline peak current induced by the addition of EC80 serotonin for 2 s, according to eq 1 [drawing 4] 1 Received data were analyzed using a four-parameter logistic equation in GraphPad Prism software.

[5] = HEK cells stably expressing h5-HT6R

T2 sequence (P50406 whole entry): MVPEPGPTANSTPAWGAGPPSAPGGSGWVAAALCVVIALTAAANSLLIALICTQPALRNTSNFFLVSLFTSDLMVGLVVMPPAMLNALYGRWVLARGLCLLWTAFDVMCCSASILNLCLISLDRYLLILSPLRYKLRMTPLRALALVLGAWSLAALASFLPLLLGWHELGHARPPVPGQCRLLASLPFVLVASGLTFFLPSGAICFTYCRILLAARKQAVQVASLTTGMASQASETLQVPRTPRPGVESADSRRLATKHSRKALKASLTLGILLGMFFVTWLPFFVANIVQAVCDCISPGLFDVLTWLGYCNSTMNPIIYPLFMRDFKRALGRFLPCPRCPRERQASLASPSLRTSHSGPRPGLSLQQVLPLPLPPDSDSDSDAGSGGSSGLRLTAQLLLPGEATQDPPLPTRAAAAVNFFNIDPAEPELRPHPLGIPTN
h5-HT7b, sequence (P34969 1-432 limits assumed): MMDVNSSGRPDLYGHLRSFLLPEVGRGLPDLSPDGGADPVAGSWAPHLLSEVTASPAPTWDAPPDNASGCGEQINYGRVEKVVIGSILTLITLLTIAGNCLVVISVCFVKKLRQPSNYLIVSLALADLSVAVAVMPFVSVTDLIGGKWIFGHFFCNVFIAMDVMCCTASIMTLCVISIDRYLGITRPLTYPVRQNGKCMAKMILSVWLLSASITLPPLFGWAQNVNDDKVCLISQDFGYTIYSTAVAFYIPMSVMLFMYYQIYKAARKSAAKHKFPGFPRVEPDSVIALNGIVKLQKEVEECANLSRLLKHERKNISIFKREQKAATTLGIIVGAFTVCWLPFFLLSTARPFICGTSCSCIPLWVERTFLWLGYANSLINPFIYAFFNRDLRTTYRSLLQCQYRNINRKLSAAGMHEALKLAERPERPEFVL
hD2L, sequence (P14416 whole entry): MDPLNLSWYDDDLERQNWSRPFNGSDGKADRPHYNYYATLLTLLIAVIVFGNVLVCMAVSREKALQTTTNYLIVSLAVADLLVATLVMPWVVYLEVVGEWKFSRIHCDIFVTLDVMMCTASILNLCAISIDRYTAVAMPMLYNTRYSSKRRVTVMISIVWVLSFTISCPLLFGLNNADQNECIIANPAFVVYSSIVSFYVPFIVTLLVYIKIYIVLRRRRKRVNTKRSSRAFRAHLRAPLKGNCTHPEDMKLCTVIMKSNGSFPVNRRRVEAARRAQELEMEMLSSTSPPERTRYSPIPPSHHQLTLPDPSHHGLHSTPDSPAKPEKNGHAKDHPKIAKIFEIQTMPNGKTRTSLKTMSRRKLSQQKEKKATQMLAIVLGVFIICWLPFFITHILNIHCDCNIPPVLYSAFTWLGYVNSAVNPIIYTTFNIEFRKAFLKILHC
h5-HT1A, sequence (P08908 whole entry): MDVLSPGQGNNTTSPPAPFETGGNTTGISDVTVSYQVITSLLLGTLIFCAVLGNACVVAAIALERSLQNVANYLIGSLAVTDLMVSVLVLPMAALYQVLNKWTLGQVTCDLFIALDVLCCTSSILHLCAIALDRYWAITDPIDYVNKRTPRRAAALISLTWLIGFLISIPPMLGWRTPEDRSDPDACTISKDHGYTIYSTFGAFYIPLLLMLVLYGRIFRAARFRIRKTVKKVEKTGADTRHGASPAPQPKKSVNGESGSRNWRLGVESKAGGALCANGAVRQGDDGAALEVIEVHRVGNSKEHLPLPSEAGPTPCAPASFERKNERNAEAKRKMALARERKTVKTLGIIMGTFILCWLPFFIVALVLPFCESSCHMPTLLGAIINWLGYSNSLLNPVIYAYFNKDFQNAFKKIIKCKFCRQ
h5-HT2AR, sequence (P28223 whole entry, looked up): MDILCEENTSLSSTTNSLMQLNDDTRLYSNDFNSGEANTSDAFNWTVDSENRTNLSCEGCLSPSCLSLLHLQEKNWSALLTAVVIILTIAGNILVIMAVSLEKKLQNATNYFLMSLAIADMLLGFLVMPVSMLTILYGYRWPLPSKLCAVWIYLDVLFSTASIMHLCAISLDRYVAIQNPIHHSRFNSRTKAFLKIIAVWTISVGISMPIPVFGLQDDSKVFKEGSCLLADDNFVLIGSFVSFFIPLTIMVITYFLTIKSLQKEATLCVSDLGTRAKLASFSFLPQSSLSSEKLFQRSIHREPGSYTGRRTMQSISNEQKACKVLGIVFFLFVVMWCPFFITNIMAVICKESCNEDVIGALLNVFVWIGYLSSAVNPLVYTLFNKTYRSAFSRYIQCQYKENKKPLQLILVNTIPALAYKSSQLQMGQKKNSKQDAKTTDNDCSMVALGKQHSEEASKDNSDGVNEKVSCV
h5-HT3R, sequence (P46098 24-478): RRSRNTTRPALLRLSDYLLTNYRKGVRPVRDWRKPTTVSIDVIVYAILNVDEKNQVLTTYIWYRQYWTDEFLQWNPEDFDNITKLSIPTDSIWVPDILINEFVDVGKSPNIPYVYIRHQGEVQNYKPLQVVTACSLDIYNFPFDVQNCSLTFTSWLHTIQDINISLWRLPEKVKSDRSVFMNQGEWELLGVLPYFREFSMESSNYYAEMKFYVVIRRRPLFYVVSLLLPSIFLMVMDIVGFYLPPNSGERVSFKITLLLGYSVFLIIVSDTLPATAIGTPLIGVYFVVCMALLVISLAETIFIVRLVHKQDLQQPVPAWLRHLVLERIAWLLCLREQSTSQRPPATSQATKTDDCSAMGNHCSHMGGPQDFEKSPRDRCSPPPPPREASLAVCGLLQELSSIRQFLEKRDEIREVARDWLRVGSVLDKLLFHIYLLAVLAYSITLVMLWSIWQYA

For `CN1CCN(c2nc3ccccc3c3[nH]ccc23)CC1` [Compound 5d, 4-(4-Methylpiperazin-1-yl)-1H-pyrrolo[3,2-c]quinoline], the “functional classification at 5-HT3R” value (5-HT3R) was “agonist”, the Ki (h5-HT6R [1]) was 0.245 µM and the Kb (h5-HT6R [2]; Kb) was over 10 µM.

In the case of `c1ccc2c(c1)nc(N1CCNCC1)c1cc[nH]c12` [Compound 5e, 4-(Piperazin-1-yl)-1H-pyrrolo[3,2-c]quinoline], the “functional classification at 5-HT3R” value (5-HT3R) is reported as “partial agonist”, the Ki (h5-HT6R [1]) is reported as 0.757 µM and the Kb (h5-HT6R [2]; Kb) is reported as over 10 µM.

`O=S(=O)(c1cccc(Cl)c1)n1ccc2c(N3CCNCC3)nc3ccccc3c21` [Compound 18, 1-[(3-Chlorophenyl)sulfonyl]-4-(piperazin-1-yl)-1H-pyrrolo[3,2-c]quinoline dihydrochloride] was tested, and the antagonist effect (5-HT3R; 100 nM) was 11%, the antagonist effect (5-HT3R; 300 nM) was 72% and the Ki (h5-HT1A) was 0.773 µM. It also gave a Ki (h5-HT2AR) of 1.67 µM, a Ki (h5-HT7b) of 1.79 µM and a Ki (hD2L) of 1.34 µM.

`Cc1cccc(S(=O)(=O)n2ccc3c(N4CCNCC4)nc4ccccc4c32)c1` [Compound 20, 1-[(3-Methylphenyl)sulfonyl]-4-(piperazin-1-yl)-1H-pyrrolo[3,2-c]quinoline dihydrochloride] showed an antagonist effect (5-HT3R; 30 nM) of 20%, an antagonist effect (5-HT3R; 100 nM) of 40% and a Ki (h5-HT1A) of 0.76 µM. It also gave a Ki (h5-HT2AR) of 4.63 µM, a Ki (h5-HT7b) of 4.14 µM and a Ki (hD2L) of 2.16 µM.

In the case of `O=S(=O)(c1ccc(F)cc1)n1ccc2c(N3CCNCC3)nc3ccccc3c21` [Compound 22, 1-[(4-Fluorophenyl)sulfonyl]-4-(piperazin-1-yl)-1H-pyrrolo[3,2-c]quinoline dihydrochloride], the antagonist effect (5-HT3R; 300 nM) is reported as 48 (300 nM) %, the Ki (h5-HT6R [1]; [5]) is reported as 0.018 µM and the antagonist effect (h5-HT6R [2]) is reported as 72%.

In the case of `O=S(=O)(c1ccc(C(F)(F)F)cc1)n1ccc2c(N3CCNCC3)nc3ccccc3c21` [Compound 23, 1-{[4-(Trifluoromethyl)phenyl]sulfonyl}-4-(piperazin-1-yl)-1H-pyrrolo[3,2-c]quinoline dihydrochloride], the Ki (h5-HT6R [1]; [5]) is reported as 0.034 µM and the antagonist effect (h5-HT6R [2]) is reported as 63%.

With `CC(C)c1ccc(S(=O)(=O)n2ccc3c(N4CCNCC4)nc4ccccc4c32)cc1` [Compound 24, 1-[(4-iso-Propylphenyl)sulfonyl]-4-(piperazin-1-yl)-1H-pyrrolo[3,2-c]quinoline dihydrochloride] the antagonist effect (5-HT3R; 300 nM) was 38 (300 nM) %, the Ki (h5-HT6R [1]; [5]) was 0.014 µM and the antagonist effect (h5-HT6R [2]) was 65%.

Work on `O=S(=O)(c1ccccc1)n1ccc2c(N3CCNCC3)nccc21` [II, reference compound] yielded a Ki (h5-HT6R [1]) of 0.006 µM and a Kb (h5-HT6R [2]; Kb) of 0.001 µM.

With `COc1ccc(S(=O)(=O)Nc2cc(Cl)cc(Cl)c2OC)cc1N1CCNCC1` [SB399885] the “effect on PCP-induced hyperactivity” value (male Sprague–Dawley rats [3]; SB399885 1 mg/kg IP, AUC post-PCP vs vehicle) was “enhances PCP-induced hyperactivity compared with vehicle”, the “effect on PCP-induced hyperactivity” value (male Sprague–Dawley rats [3]; SB399885 alone IP, doses up to 9 mg/kg, AUC 1st and 2nd hour post-PCP) was “did not affect PCP-induced hyperactivity” and the “effect on spontaneous activity” value (male Sprague–Dawley rats [4]; SB399885 1 mg/kg IP) was “neither compound affected spontaneous activity”. For the same molecule, the “effect on spontaneous activity” value (male Sprague–Dawley rats [4]; SB399885 9 mg/kg IP) was “sedative-like action”.

With `Cc1nccn1CC1CCc2c(c3ccccc3n2C)C1=O` (stereo not drawn) [ondansetron, reference compound] the pA2 (5-HT3R; antagonist potency, Schild analysis, guinea pig ileum) was “pA2 = 7.11 ± 0.12”, the “effect on spontaneous activity” value (male Sprague–Dawley rats [4]; ondansetron 0.5 mg/kg IP) was “neither compound affected spontaneous activity” and the Kb (h5-HT6R [2]; read-out: Kb) was 58.2 µM.

Work on `O=C1c2cccc3c2[C@H](CCC3)CN1[C@@H]1CN2CCC1CC2` [palonosetron] yielded an IC50 (h5-HT3R) of 0.0017 µM.
